From article PMC6151788, “Biological Evaluation and Molecular Docking of Protocatechuic Acid from Hibiscus sabdariffa L. as a Potent Urease Inhibitor by an ESI-MS Based Method” (Molecules : A Journal of Synthetic Chemistry and Natural …, 2017)

Tests used:
Jack bean urease (JBU) [1] = biological target: T1, Jack bean urease (JBU) (Canavalia ensiformis, UniProt P07374); assay: ESI-MS urea depletion assay with purchased jack bean urease; standard inhibitor; assay type: biochemical
T1 construct: JBU-type III from Canavalia ensiformis
T1 sequence (P07374 whole entry, looked up): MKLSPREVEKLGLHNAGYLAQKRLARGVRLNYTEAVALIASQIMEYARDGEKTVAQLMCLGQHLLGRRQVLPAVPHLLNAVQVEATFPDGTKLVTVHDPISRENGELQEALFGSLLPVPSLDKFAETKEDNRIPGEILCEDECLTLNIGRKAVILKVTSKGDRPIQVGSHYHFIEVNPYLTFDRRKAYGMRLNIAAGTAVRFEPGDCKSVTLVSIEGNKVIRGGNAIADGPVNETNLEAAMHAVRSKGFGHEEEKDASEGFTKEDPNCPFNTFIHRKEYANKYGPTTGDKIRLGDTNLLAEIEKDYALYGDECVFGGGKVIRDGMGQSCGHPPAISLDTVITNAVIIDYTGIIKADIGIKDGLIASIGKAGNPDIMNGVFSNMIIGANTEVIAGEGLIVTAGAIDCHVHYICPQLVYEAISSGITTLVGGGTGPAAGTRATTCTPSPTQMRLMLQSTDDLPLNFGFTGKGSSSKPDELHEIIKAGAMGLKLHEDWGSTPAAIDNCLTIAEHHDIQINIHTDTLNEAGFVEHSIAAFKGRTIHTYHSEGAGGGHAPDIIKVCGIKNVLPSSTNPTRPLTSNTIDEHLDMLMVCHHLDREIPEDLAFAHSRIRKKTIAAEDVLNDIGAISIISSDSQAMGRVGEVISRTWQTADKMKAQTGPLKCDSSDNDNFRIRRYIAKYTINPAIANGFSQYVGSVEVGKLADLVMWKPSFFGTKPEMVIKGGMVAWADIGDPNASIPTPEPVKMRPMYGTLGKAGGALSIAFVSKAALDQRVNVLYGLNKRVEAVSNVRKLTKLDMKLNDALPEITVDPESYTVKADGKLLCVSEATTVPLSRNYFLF

Jack bean urease (JBU) [2] = biological target: T1, Jack bean urease (JBU); assay: ESI-MS urea depletion assay with purchased jack bean urease; assay type: biochemical

| SMILES | IC50 (Jack bean urease (JBU) [1]) | IC50 (Jack bean urease (JBU) [2]) |
| --- | --- | --- |
| CC(=O)NO [AHA, acetohydroxamic acid] | 3.2 µM |  |
| O=C(O)c1ccc(O)c(O)c1 [PCA, 3,4-dihydroxybenzoic acid] |  | 1.7 µM |
